In assay [1] the test system is SW48 parental (KRAS WT) cells. The experiment in a line: Cell viability (SRB), SW48 parental. It counts as cell-based. The settings on record: Homo sapiens; SW48 KRAS WT, Crizotinib with DMSO, SRB 72 hr; read-out: GI50. As to the method: (§1) SW48 Parental, SW48 G12D, Panc-1, HPAF-II, Panc 02.03 and Panc 05.04 cell lines were seeded overnight at 5000 cells per well in a 96 well plate in recommended media (ATCC). Compounds were added the following day and viability was measured at 72h using the sulforhodamine B (SRB) colorimetric assay as follows. Cells were fixed by replacing media with 1% v/v Trichloroacetic Acid (TCA) (Sigma-Aldrich) at 4°C and incubated for 1h also at 4°C. Wells were washed thoroughly with copious amounts of deionised water before staining with Sulforhodamine B (SRB) (Sigma-Aldrich) solution (0.057% w/v in 1% v/v Acetic Acid (VWR)) for 30 min. Stain was aspirated and wells washed with several changes of 1% v/v Acetic Acid until unbound stain was removed, before air-drying. Bound stain was solubilized with 100μl / well 10mM Tris (pH 8.0) (Trizma Base (121.1) Sigma-Aldrich) with agitation for 10 min. Fluorescence intensity was recorded at Ex540nm / Em590nm using a BMG Pherastar Plus plate reader ([Vichai and Kirtikara, 2006]).

For another assay, the system named is SW48 KRAS G12D cells. Nature of the assay: Cell viability (SRB), SW48 KRAS G12D. The settings on record: Homo sapiens; SW48 KRAS G12D, Crizotinib with DMSO, SRB 72 hr; read-out: GI50. It counts as cell-based. How it is done: as §1
The test system of assay [2] is murine pancreatic organoids KRAS WT p53 MUT. The experiment in a line: Viability of pancreatic organoids (CellTitre Glo 3D), KRAS WT. Format: cell-based. The settings on record: Mus musculus; organoids KRAS WT p53 MUT, Crizotinib plus DMSO, n=2; read-out: Mean GI50. As to the method: (§2) Organoid cultures were prepared from the pancreas of LSL-Trp53^R172H/+, Pdx-1-Cre (for Kras WT organoids) or LSL-Trp53^R172H/+, LSL-Kras^G12D/+, Pdx-1-Cre (for Kras^G12D organoids KPC3760 and KPC26684) strains ([Hingorani et al., 2005]). Pancreatic ducts were manually picked after tissue mincing and overnight enzymatic digestion with 0.012% (w/v) collagenase XI (Sigma) and 0.012% (w/v) dispase (GIBCO) in DMEM media containing 1% FBS (GIBCO), before seeding in growth-factor-reduced (GFR) Matrigel (BD) ([Boj et al., 2015]).
(§3) Pancreatic organoids were extracted and cultured as detailed above ([Boj et al., 2015]). In brief, pancreatic organoids were seeded at 600 cells per well in a 96 well plate and allowed to grow for 7 days with media replenishment on the 3rd day. Full-grown organoids were then treated with compounds for 72h and viability determined using CellTitre Glo 3D assay (Promega). For viability assays with c-MET siRNA, cells were reverse transfected in a 6 cm dish using Dharmafect 1 (GE Dharmacon) per manufacturer’s instructions. On the following day, cells were trypsinised and plated onto 96 well plates or 6 well plates. The 96 well plates were treated with a dose range of compounds or DMSO, and viability was determined via SRB colorimetric assay. Cells in the 6 well plates were collected at the end of experiment to corroborate knockdown of c-MET by Western blotting.

Assay [3] concerns murine pancreatic organoids KRAS MUT p53 MUT. Nature of the assay: Viability of pancreatic organoids (CellTitre Glo 3D), KRAS G12D. It counts as cell-based. The settings on record: Mus musculus; organoids KRAS MUT p53 MUT #2, Crizotinib plus DMSO, n=2; read-out: Mean GI50. How it is done:
as §2, §3

A further assay has as its system Panc-1. Nature of the assay: Cell viability (SRB), Panc-1. It counts as cell-based, human. The settings on record: Homo sapiens. How it is done:
as §1, §3
Cells were reverse-transfected with 50nM (SW48 parental, SW48 KRAS G12D and Panc-1) or 25nM (HeLa Flp-In T-REx parental cells) siRNA using Dharmafect (GE Dharmacon) as manufacturer’s recommendations. Where transfected cells were subsequently treated with compounds, the cells were allowed to settle overnight and then treated with compound at the indicated concentration the following day. Viability was assessed after 72 hrs, with the SRB colorimetric assay. Knockdown efficiencies were determined by Western blot or RT-qPCR. Oligos against the following target sequences were used. c-MET (Qiagen): […], […], […]. PLK1 (Qiagen): […]. PLK2 (SMARTpool; Dharmacon): ACACAGAAGGAGAACGAUA, CAUCAAUGAGGAUAGGAUA, CUGCCUAGUGUUACUGAUA, ACAAAGUCUACGCCGCAAA. PLK3 (SMARTpool; Dharmacon): GCGAGAAGAUCCUAAAUGA, GCAAGUGGGUUGACUACUC, GCACAUCCGUUGGCCAUCA, GACCUCAAGUUGGGAAAUU. PLK4 (Qiagen): […].

The next assay has as its system Panc 02.03. The experiment in a line: Cell viability (SRB), Panc 02.03. It counts as cell-based. The settings on record: Homo sapiens, Panc 02.03; read-out: Crizotinib GI50. How it is done: as §1
as §3, with “Cells in the 6 well plates were collected at the end of experiment to corroborate knockdown of c-MET by Western blotting.” left out
(§4) Cells were reverse-transfected with 50nM (SW48 parental, SW48 KRAS G12D and Panc-1) or 25nM (HeLa Flp-In T-REx parental cells) siRNA using Dharmafect (GE Dharmacon) as manufacturer’s recommendations. […] Viability was assessed after 72 hrs, with the SRB colorimetric assay. Knockdown efficiencies were determined by Western blot or RT-qPCR. […]

A further assay deals with Panc 05.04. Nature of the assay: Cell viability (SRB), Panc 05.04. The settings on record: Homo sapiens, Panc 05.04; Panc 04.05; read-out: Crizotinib GI50. Format: cell-based. As to the method: as §1
as §3, with “Cells in the 6 well plates were collected at the end of experiment to corroborate knockdown of c-MET by Western blotting.” left out
as §4

In the next assay the test system is DLD-1. The experiment in a line: Cell viability, DLD-1. It counts as cell-based. The settings on record: Homo sapiens, read-out: Crizotinib GI50.
A further assay relates to SW116. Nature of the assay: Cell viability, SW1116. Format: cell-based. The settings on record: Homo sapiens, read-out: Crizotinib GI50.
In a further assay the test system is HT29. The experiment in a line: Cell viability, HT29. Format: cell-based. The settings on record: Homo sapiens, HT-29, read-out: Crizotinib GI50.
The target in assay [4] is T1, PLK2-PBD(356-681), Polo-box domain of human Polo-like kinase 2 (human, UniProt Q9NYY3 356-681).
T1 construct: Polo-like kinase 2 (PLK2), human, Polo-box domain, residues 356-681; also called PLK2 PBD (aa356-681); PLK2 PDB; source: E. coli C41, purified (GST-Sepharose column, cleaved on column with PreScission protease, gel chromatography)
T1 sequence (looked up): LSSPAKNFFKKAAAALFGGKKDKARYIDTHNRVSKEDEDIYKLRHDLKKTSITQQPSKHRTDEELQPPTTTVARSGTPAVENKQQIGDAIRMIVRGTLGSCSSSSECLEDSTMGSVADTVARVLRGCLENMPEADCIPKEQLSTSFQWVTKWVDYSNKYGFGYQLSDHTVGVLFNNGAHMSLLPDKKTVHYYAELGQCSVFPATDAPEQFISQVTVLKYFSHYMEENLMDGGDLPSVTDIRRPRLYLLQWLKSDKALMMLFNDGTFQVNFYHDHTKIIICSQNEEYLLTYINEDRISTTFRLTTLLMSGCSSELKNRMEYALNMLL
Nature of the assay: fluorescence polarisation; competition format: TAMRA-labelled phosphopeptide 10 nM, PBD 84 nM (2.5 ng/ul), PBS pH 7.4 plus 0.03% tween; compound and PBD incubated together at 22 C for 1 hour before the peptide was added; same procedure for PLK2 PBD with its own peptide. The settings on record: both partners purified. On the technique in general: Polarisation of emitted light reports the rotation of a fluorescent probe.

Read-outs that look alike come from different tables or passages of the source. Non-standard residues stand in square brackets, D forms with d. No end group written: not given here. *: point of attachment. TAMRA = tetramethyl-6-carboxy-rhodamine, CN(C)c1ccc2c(-c3cc(C(=O)*)ccc3C(=O)[O-])c3ccc(N(C)C)cc3[o+]c2c1; pT = C[C@@H](OP(=O)(O)O)[C@H](N)C(=O)O

What is called GI50 is the concentration at which growth is held to half of that of the control. One may read the EC50 as the concentration at which the effect is half-maximal. For the molecule `C[C@@H](Oc1cc(-c2cnn(C3CCNCC3)c2)cnc1N)c1c(Cl)ccc(F)c1Cl` [Crizotinib, reference compound], the GI50 in assay [1] worked out at 560 ± 20 nM; in the assay on SW48 KRAS G12D cells, 630 ± 10 nM; in assay [2] it was 17600 nM; in assay [3], 6800 nM; in the assay on Panc-1 (PANC-1, 72 h, Panc-1, individual compound, 72 hr, Figure 7F/7G, read-out: Abs GI50) it was 2500 nM; in the assay with Panc-1 (PANC-1, Panc-1, read-out: Crizotinib GI50), 7240 nM. The GI50 in the assay with Panc 02.03 was determined as 960 nM; in the assay on Panc 05.04 it was 91 nM; in the assay with DLD-1, 1620 nM; in the assay with SW116 it was 4730 nM; with HT29, 3850 nM. For the same molecule, the EC50 in the assay with Panc-1 (Panc-1, c-MET inhibitor alone, SRB 72 h, Figure S5C, read-out: EC50, % survival) was 3500 ± 1040 nM.

B1: TAMRA-MAGPMQTS(pThreonine)PKNGAKK, consensus binding phosphopeptide used with the PLK2 PBD (peptide)
peptide: {TAMRA}-MAGPMQTS[pT]PKNGAKK
notes: the second T of 'TST' is phosphothreonine; also called phosphopeptide substrate; source: bought: Designer Bioscience
B1: in [4], the binding result is listed as “binds”.

Values taken from paper PMC5563081, “Modulating Protein-Protein Interactions of the Mitotic Polo-like Kinases to Target Mutant KRAS” (Cell Chemical Biology, 2017).
